Assays:
Gemcitabine = compound: Nc1ccn([C@@H]2O[C@H](CO)[C@@H](O)C2(F)F)c(=O)n1 [Gemcitabine]; conditions: max 0.3 µM
Summary of the method: (§1)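 In 1536-well plates, cancer cell lines in 7.5 μl DMEM/F12 or RPMI with 10% FBS spent 24 hours at 37°C and 5% CO2 and were then dosed for 72 hours with final DMSO typically 0.2%. Viability was read by CellTiter-Glo 2.0 luminescence and scaled between blank-well and DMSO-well means. The single-agent IC50 was fitted from dose responses using a logistic curve in a non-linear mixed effects model, and that logistic curve had two parameters.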

SN-38 = compound: CCc1c2c(nc3ccc(O)cc13)-c1cc3c(c(=O)n1C2)COC(=O)[C@]3(O)CC [SN-38]; conditions: max 0.3 µM
Summary of the method: as §1

Dasatinib = compound: CC1=C(C(=CC=C1)Cl)NC(=O)C2=CN=C(S2)NC3=CC(=NC(=N3)C)N4CCN(CC4)CCO [Dasatinib]; conditions: max 2 µM
Summary of the method: as §1

Venetoclax = compound: CC1(C)CCC(CN2CCN(c3ccc(C(=O)NS(=O)(=O)c4ccc(NCC5CCOCC5)c([N+](=O)[O-])c4)c(Oc4cnc5[nH]ccc5c4)c3)CC2)=C(c2ccc(Cl)cc2)C1 [Venetoclax]; conditions: max 1 µM
Summary of the method: as §1

AZD2811 = compound: CCN(CCO)CCCOc1ccc2c(Nc3cc(CC(=O)Nc4cccc(F)c4)[nH]n3)ncnc2c1 [AZD2811]; conditions: max 1 µM
Summary of the method: as §1

Taselisib = compound: Cc1nc(-c2cn3c(n2)-c2ccc(-c4cnn(C(C)(C)C(N)=O)c4)cc2OCC3)n(C(C)C)n1 [Taselisib]; conditions: max 10 µM
Summary of the method: as §1

AZD5363 = compound: C1CN(CCC1(C(=O)N[C@@H](CCO)C2=CC=C(C=C2)Cl)N)C3=NC=NC4=C3C=CN4 [AZD5363]; conditions: max 10 µM
Summary of the method: as §1

Olaparib = compound: O=C(c1cc(Cc2n[nH]c(=O)c3ccccc23)ccc1F)N1CCN(C(=O)C2CC2)CC1 [Olaparib]; conditions: max 10 µM
Summary of the method: as §1

Savolitinib = compound: C[C@@H](c1ccc2nccn2c1)n1nnc2ncc(-c3cnn(C)c3)nc21 [Savolitinib]; conditions: max 1 µM
Summary of the method: as §1

Etoposide = compound: COc1cc([C@@H]2c3cc4c(cc3[C@@H](O[C@@H]3O[C@@H]5CO[C@@H](C)O[C@H]5[C@H](O)[C@H]3O)[C@H]3COC(=O)[C@H]23)OCO4)cc(OC)c1O [Etoposide]; conditions: max 10 µM
Summary of the method: as §1

Lapatinib = compound: CS(=O)(=O)CCNCc1ccc(-c2ccc3ncnc(Nc4ccc(OCc5cccc(F)c5)c(Cl)c4)c3c2)o1 [Lapatinib]; conditions: max 10 µM
Summary of the method: as §1

Carboplatin = compound: C1CC(C1)(C(=O)[O-])C(=O)[O-].N.N.[Pt+2] [Carboplatin]; conditions: max 10 µM
Summary of the method: as §1

Crizotinib = compound: C[C@@H](Oc1cc(-c2cnn(C3CCNCC3)c2)cnc1N)c1c(Cl)ccc(F)c1Cl [Crizotinib]; conditions: max 10 µM
Summary of the method: as §1

Gefitinib = compound: COc1cc2ncnc(Nc3ccc(F)c(Cl)c3)c2cc1OCCCN1CCOCC1 [Gefitinib]; conditions: max 10 µM
Summary of the method: as §1

Doxorubicin = compound: COc1cccc2c1C(=O)c1c(O)c3c(c(O)c1C2=O)C[C@@](O)(C(=O)CO)C[C@@H]3O[C@H]1C[C@H](N)[C@H](O)[C@H](C)O1 [Doxorubicin]; conditions: max 1 µM
Summary of the method: as §1

AZD5991 = compound: Cc1c2c(nn1C)CSCc1cc(n(C)n1)CSc1cc(c3ccccc3c1)OCCCc1c(C(=O)O)n(C)c3c-2c(Cl)ccc13 [AZD5991]; conditions: max 1 µM
Summary of the method: as §1

AZD1775 = compound: C=CCn1c(=O)c2cnc(Nc3ccc(N4CCN(C)CC4)cc3)nc2n1-c1cccc(C(C)(C)O)n1 [AZD1775]; conditions: max 3 µM
Summary of the method: as §1

Alisertib = compound: COc1cc(Nc2ncc3c(n2)-c2ccc(Cl)cc2C(c2c(F)cccc2OC)=NC3)ccc1C(=O)O [Alisertib]; conditions: max 10 µM
Summary of the method: as §1

Trametinib = compound: CC(=O)Nc1cccc(-n2c(=O)n(C3CC3)c(=O)c3c(Nc4ccc(I)cc4F)n(C)c(=O)c(C)c32)c1 [Trametinib]; conditions: max 1 µM
Summary of the method: as §1

[1] = compound: O=C(Nc1ccc2[nH]nc(-c3ccncc3)c2c1)[C@@H]1CCN(CC(=O)N2CCN(c3ccc(-c4ncccn4)cc3)CC2)C1; conditions: max 5 µM
Summary of the method: as §1

AZD6738 = compound: C[C@@H]1COCCN1C2=NC(=NC(=C2)C3(CC3)[S@](=N)(=O)C)C4=C5C=CNC5=NC=C4 [AZD6738]; conditions: max 10 µM
Summary of the method: as §1

AZD8186 = compound: C[C@@H](Nc1cc(F)cc(F)c1)c1cc(C(=O)N(C)C)cc2c(=O)cc(N3CCOCC3)oc12 [AZD8186]; conditions: max 10 µM
Summary of the method: as §1

SRA737 = compound: N#Cc1cnc(Nc2cc(NC[C@H]3CNCCO3)c(C(F)(F)F)cn2)cn1 [SRA737]; conditions: max 10 µM
Summary of the method: as §1

AZD4320 = compound: CN(CC[C@H](CSC1=CC=CC=C1)NC2=C(C=C(C=C2)S(=O)(=O)NC(=O)C3=CC=C(C=C3)N4CCC(CC4)[C@H](C5=CC=CC=C5C6=CC=C(C=C6)Cl)O)S(=O)(=O)C(F)(F)F)CCO [AZD4320]; conditions: max 1 µM
Summary of the method: as §1

AZD0156 = compound: CN(C)CCCOc1ccc(-c2ccc3ncc4c(c3c2)n(C2CCOCC2)c(=O)n4C)cn1 [AZD0156]; conditions: max 3 µM
Summary of the method: as §1

Paclitaxel = compound: CC(=O)O[C@H]1C(=O)[C@@]2(C)[C@H]([C@H](OC(=O)c3ccccc3)[C@]3(O)C[C@H](OC(=O)[C@H](O)[C@@H](NC(=O)c4ccccc4)c4ccccc4)C(C)=C1C3(C)C)[C@]1(OC(C)=O)CO[C@@H]1C[C@@H]2O [Paclitaxel]; conditions: max 3 µM
Summary of the method: as §1

Palbociclib = compound: CC(=O)c1c(C)c2cnc(Nc3ccc(N4CCNCC4)cn3)nc2n(C2CCCC2)c1=O [Palbociclib]; conditions: max 10 µM
Summary of the method: as §1

5-Fluorouracil = compound: O=c1[nH]cc(F)c(=O)[nH]1 [5-Fluorouracil]; conditions: max 20 µM
Summary of the method: as §1

Selumetinib = compound: Cn1cnc2c(F)c(Nc3ccc(Br)cc3Cl)c(C(=O)NOCCO)cc21 [Selumetinib]; conditions: max 10 µM
Summary of the method: as §1

AZD5153 = compound: COc1nnc2ccc(N3CCC(c4ccc(OCCN5CCN(C)C(=O)[C@H]5C)cc4)CC3)nn12 [AZD5153]; conditions: max 1 µM
Summary of the method: as §1

Prexasertib = compound: COc1cccc(OCCCN)c1-c1cc(Nc2cnc(C#N)cn2)n[nH]1 [Prexasertib]; conditions: max 1 µM
Summary of the method: as §1

MK-2206 = compound: NC1(c2ccc(-c3nc4ccn5c(=O)[nH]nc5c4cc3-c3ccccc3)cc2)CCC1 [MK-2206]; conditions: max 10 µM
Summary of the method: as §1

AZD7648 = compound: Cc1cc2ncnn2cc1Nc1ncc2c(n1)n(C1CCOCC1)c(=O)n2C [AZD7648]; conditions: max 10 µM
Summary of the method: as §1

AZD1390 = compound: CC(C)n1c(=O)n(C)c2cnc3cc(F)c(-c4ccc(OCCCN5CCCCC5)nc4)cc3c21 [AZD1390]; conditions: max 0.3 µM
Summary of the method: as §1

SG3199 = compound: CC1=CN2[C@@H](C1)C=NC3=CC(=C(C=C3C2=O)OC)OCCCCCOC4=C(C=C5C(=C4)N=C[C@@H]6CC(=CN6C5=O)C)OC [SG3199]; conditions: max 0.001 µM
Summary of the method: as §1

Row | Cell Line | IC50, cell viability 72 h (Gemcitabine) [µM] | IC50, cell viability 72 h (SN-38) [µM] | IC50, cell viability 72 h (Dasatinib) [µM] | IC50, cell viability 72 h (Venetoclax) [µM] | IC50, cell viability 72 h (AZD2811) [µM] | IC50, cell viability 72 h (Taselisib) [µM] | IC50, cell viability 72 h (AZD5363) [µM] | IC50, cell viability 72 h (Olaparib) [µM] | IC50, cell viability 72 h (Savolitinib) [µM] | IC50, cell viability 72 h (Etoposide) [µM] | IC50, cell viability 72 h (Lapatinib) [µM] | IC50, cell viability 72 h (Carboplatin) [µM] | IC50, cell viability 72 h (Crizotinib) [µM] | IC50, cell viability 72 h (Gefitinib) [µM] | IC50, cell viability 72 h (Doxorubicin) [µM] | IC50, cell viability 72 h (AZD5991) [µM] | IC50, cell viability 72 h (AZD1775) [µM] | IC50, cell viability 72 h (Alisertib) [µM] | IC50, cell viability 72 h (Trametinib) [µM] | IC50, cell viability 72 h [1] [µM] | IC50, cell viability 72 h (AZD6738) [µM] | IC50, cell viability 72 h (AZD8186) [µM] | IC50, cell viability 72 h (SRA737) [µM] | IC50, cell viability 72 h (AZD4320) [µM] | IC50, cell viability 72 h (AZD0156) [µM] | IC50, cell viability 72 h (Paclitaxel) [µM] | IC50, cell viability 72 h (Palbociclib) [µM] | IC50, cell viability 72 h (5-Fluorouracil) [µM] | IC50, cell viability 72 h (Selumetinib) [µM] | IC50, cell viability 72 h (AZD5153) [µM] | IC50, cell viability 72 h (Prexasertib) [µM] | IC50, cell viability 72 h (MK-2206) [µM] | IC50, cell viability 72 h (AZD7648) [µM] | IC50, cell viability 72 h (AZD1390) [µM] | IC50, cell viability 72 h (SG3199) [µM]
1 | 8305C (Thyroid Gland Carcinoma) | > 0.3 | > 0.3 | 1.15 | > 1 | > 1 | 1.28 | > 10 | > 10 | > 1 | > 10 | > 10 | > 10 | > 10 | > 10 | > 1 | > 1 | 1.94 | > 10 | 0.902 | > 5 | > 10 | > 10 | > 10 | > 1 | > 3 | 0.159 | > 10 | > 20 | > 10 | > 1 | 0.0878 | > 10 | > 10 | > 0.3 | > 0.001
2 | CAL-54 (Kidney Carcinoma) | 0.0234 | 0.0156 | 0.0336 | > 1 | > 1 | 2.28 | 9.91 | > 10 | > 1 | > 10 | 7.99 | > 10 | > 10 | 5.89 | 0.936 | > 1 | 0.452 | 4.71 | > 1 | > 5 | 5.49 | 0.873 | > 10 | > 1 | > 3 | 0.399 | 4.13 | > 20 | > 10 | 0.102 | 0.0385 | 3.36 | > 10 | > 0.3 | > 0.001
3 | CAPAN-1 (Pancreatic Carcinoma) | 0.13 | 0.0388 | > 2 | > 1 | > 1 | > 10 | > 10 | > 10 | > 1 | > 10 | > 10 | > 10 | > 10 | > 10 | > 1 | > 1 | 1.23 | > 10 | 0.349 | 2.79 | > 10 | > 10 | > 10 | > 1 | > 3 | 0.188 | > 10 | > 20 | > 10 | > 1 | 0.485 | > 10 | > 10 | > 0.3 | > 0.001
4 | EN (Endometrial Carcinoma) | > 0.3 | > 0.3 | > 2 | > 1 | 0.947 | 2.73 | 5.5 | > 10 | > 1 | > 10 | > 10 | > 10 | > 10 | > 10 | > 1 | > 1 | 0.77 | 3.67 | > 1 | > 5 | 8.64 | > 10 | > 10 | > 1 | > 3 | 0.798 | > 10 | > 20 | > 10 | > 1 | 0.0413 | 8.08 | > 10 | > 0.3 | > 0.001
5 | HARA (Squamous Cell Lung Carcinoma) | 0.056 | 0.0445 | > 2 | > 1 | > 1 | 2.15 | 9.16 | > 10 | > 1 | 9.59 | 7.69 | > 10 | > 10 | > 10 | 0.577 | > 1 | 0.207 | 3.82 | 0.858 | 3.84 | 1.73 | > 10 | 1 | > 1 | > 3 | 0.00363 | 7.42 | 18.3 | > 10 | 0.223 | 0.0139 | > 10 | > 10 | > 0.3 | > 0.001

— the supplement of paper PMC11061612
